According to ChEMBL document CHEMBL1154947, “Discovery of N-(5,6-diarylpyridin-2-yl)amide derivatives as potent and selective A(2B) adenosine receptor antagonists” (Bioorg Med Chem Lett, 2010):

Columns and labels:
Adenosine receptor A2a [1] = molecular target: T1, Adenosine receptor A2a (Homo sapiens, UniProt P29274); test: Displacement of [3H]ZM241385 from human adenosine A2A receptor expressed in human HeLa cells after 1 hr by scintillation proximity assay; format: cell-based
Adenosine receptor A3 = molecular target: T2, Adenosine receptor A3 (Homo sapiens, UniProt P0DMS8); test: Displacement of [3H]NECA from human adenosine A3 receptor expressed in human HeLa cells after 3 hrs by filtration binding assay; format: cell-based
T2 sequence (P0DMS8 whole entry): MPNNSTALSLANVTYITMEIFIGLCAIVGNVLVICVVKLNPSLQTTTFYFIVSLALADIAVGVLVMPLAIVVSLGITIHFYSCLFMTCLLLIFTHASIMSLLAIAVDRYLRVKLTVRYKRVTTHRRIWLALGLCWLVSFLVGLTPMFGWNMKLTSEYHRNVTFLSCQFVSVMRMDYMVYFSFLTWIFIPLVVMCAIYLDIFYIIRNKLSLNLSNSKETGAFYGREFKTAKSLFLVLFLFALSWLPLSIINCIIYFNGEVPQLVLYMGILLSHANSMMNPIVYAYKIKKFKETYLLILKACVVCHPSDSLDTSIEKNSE

Adenosine receptor A2b = molecular target: T3, Adenosine receptor A2b (Homo sapiens, UniProt P29275); test: biochemical
T3 sequence (P29275 whole entry): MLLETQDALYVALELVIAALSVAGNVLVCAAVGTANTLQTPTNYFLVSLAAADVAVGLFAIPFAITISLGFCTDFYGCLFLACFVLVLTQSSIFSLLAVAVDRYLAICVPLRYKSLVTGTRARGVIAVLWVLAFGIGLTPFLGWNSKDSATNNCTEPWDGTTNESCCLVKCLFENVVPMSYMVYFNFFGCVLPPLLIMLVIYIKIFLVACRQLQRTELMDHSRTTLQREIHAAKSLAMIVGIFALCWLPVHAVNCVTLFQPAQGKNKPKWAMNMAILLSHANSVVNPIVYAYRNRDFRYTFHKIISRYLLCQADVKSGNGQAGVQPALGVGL
Description: Displacement of [3H]DPCPX from human adenosine A2B receptor expressed in HEK293 cells after 60 mins by filtration binding assay

Adenosine receptor A1 = molecular target: T4, Adenosine receptor A1 (Homo sapiens, UniProt P30542); test: biochemical
T4 sequence (P30542 whole entry): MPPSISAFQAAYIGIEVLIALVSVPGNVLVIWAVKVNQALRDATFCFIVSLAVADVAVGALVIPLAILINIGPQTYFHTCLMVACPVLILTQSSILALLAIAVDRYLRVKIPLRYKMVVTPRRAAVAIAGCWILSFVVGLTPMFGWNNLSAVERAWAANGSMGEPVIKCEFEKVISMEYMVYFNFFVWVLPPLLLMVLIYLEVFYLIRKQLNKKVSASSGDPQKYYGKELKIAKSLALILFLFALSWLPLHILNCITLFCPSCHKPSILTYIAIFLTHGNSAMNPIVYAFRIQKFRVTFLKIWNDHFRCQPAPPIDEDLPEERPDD
Description: Displacement of [3H]DPCPX from human adenosine A1 receptor expressed in CHO cells after 90 mins by filtration binding assay

[2] = molecular target: T5, Adenosine receptor A3 (Homo sapiens) (UniProt P0DMS8); test: Inhibition of [3H]NECA binding to human adenosine A3 receptor expressed in human HeLa cells at 1 uM after 3 hrs by filtration binding assay; format: cell-based
T5 sequence (whole entry): T2 sequence (P0DMS8 whole entry)

[3] = molecular target: T6, Adenosine receptor A1 (Homo sapiens) (UniProt P30542); test: Inhibition of [3H]DPCPX binding to human adenosine A1 receptor expressed in CHO cells at 1 uM after 90 mins by filtration binding assay; format: cell-based
T6 sequence (whole entry): T4 sequence (P30542 whole entry)

[4] = Metabolic stability in rat liver microsomes assessed as turnover at 5 uM after 30 mins in absence of NADPH; format: ADME, Microsome; details: read-out: Activity
[5] = Metabolic stability in human liver microsomes assessed as turnover at 5 uM after 30 mins in absence of NADPH; format: ADME, Microsome; details: read-out: Activity
Adenosine receptor A2a [6] = molecular target: T1, Adenosine receptor A2a; test: Inhibition of [3H]ZM241385 binding to human adenosine A2A receptor expressed in human HeLa cells at 1 uM after 1 hr by scintillation proximity assay; format: cell-based
[7] = molecular target: T7, Adenosine receptor A2b (Homo sapiens) (UniProt P29275); test: Inhibition of [3H]DPCPX binding to human adenosine A2B receptor expressed in HEK293 cells at 1 uM after 60 mins by filtration binding assay; format: cell-based
T7 sequence (whole entry): T3 sequence (P29275 whole entry)

[8] = Metabolic stability in human liver microsomes assessed as turnover at 5 uM after 30 mins in presence of NADPH; format: ADME, Microsome; details: read-out: Activity
[9] = Terminal half life in rat at 1 mg/kg, iv; format: ADME, organism-based; set-up: dose 1 mg/kg, route intravenous; details: in vivo, read-out: beta t1/2 (converted)
[10] = Cmax in rat at 1 mg/kg, iv; format: ADME, organism-based; set-up: dose 1 mg/kg, route intravenous; details: in vivo
[11] = Clearance in rat at 1 mg/kg, iv; format: ADME, organism-based; set-up: dose 1 mg/kg, route intravenous; details: in vivo
[12] = AUC (0 to infinity) in rat at 1 mg/kg, iv; format: ADME, organism-based; set-up: time infinity, dose 1 mg/kg, route intravenous; details: plasma
[13] = Volume of distribution at steady state in rat at 1 mg/kg, iv; format: ADME, organism-based; set-up: dose 1 mg/kg, route intravenous; details: in vivo, read-out: Vdss
[14] = Metabolic stability in rat liver microsomes assessed as turnover at 5 uM after 30 mins in presence of NADPH; format: ADME, Microsome; details: read-out: Activity
[15] = Tmax in rat at 10 mg/kg, po; format: ADME, organism-based; set-up: dose 10 mg/kg, route oral; details: in vivo
[16] = Oral bioavailability in rat at 10 mg/kg; format: ADME, organism-based; details: in vivo

T1 sequence (P29274 whole entry): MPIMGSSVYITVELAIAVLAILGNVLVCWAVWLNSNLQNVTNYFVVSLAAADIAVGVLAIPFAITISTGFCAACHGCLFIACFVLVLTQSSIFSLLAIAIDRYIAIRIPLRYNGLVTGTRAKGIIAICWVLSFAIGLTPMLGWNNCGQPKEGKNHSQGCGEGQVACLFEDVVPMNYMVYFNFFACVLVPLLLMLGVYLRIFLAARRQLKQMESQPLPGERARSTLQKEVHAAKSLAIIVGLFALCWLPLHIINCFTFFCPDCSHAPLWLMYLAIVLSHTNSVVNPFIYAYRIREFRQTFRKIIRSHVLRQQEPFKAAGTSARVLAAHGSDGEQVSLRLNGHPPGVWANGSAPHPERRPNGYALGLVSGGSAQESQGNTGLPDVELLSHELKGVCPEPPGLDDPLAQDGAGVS

Ki (Adenosine receptor A2a [1]) | Ki (Adenosine receptor A3) | Ki (Adenosine receptor A2b) | Ki (Adenosine receptor A1) | inhibition [2] | inhibition [3] | SMILES | other results
286 nM | 471 nM | 30 nM | 58 nM | – | – | CC(=O)Nc1ccc(-c2ccncc2)c(-c2cccc(F)c2)n1 | –
35 nM | 617 nM | 28 nM | 285 nM | – | – | O=C(Nc1ccc(Br)c(-c2ccco2)n1)C1CC1 | –
– | 1040 nM | – | 2820 nM | – | – | c1cncc(Nc2ncc(-c3ccncn3)c(-c3ccco3)n2)c1 | –
635 nM | – | 30 nM | 635 nM | 5% | – | O=C(Nc1ccc(-c2ccncc2)c(-c2cnco2)n1)C1CC1 | –
1370 nM | – | 134 nM | – | 12% | 1% | O=C(Nc1ccc(-c2ccncc2)c(-c2cocn2)n1)C1CC1 | –
61 nM | 817 nM | 2 nM | 123 nM | – | – | O=C(Nc1ccc(-c2ccncc2)c(-c2ccccc2F)n1)C1CC1 | metabolised at 0.5 h, 5 µM [4]: 100%; metabolised at 0.5 h, 5 µM [5]: 86%
– | – | 380 nM | – | 2% | 2% | CC(=O)Nc1ncc(-c2ccncn2)c(-c2ccco2)n1 | inhibition (Adenosine receptor A2a [6]): 10%
163 nM | – | 14 nM | 338 nM | 6% | – | O=C(Nc1ccc(-c2ccncc2)c(-c2ccncc2)n1)C1CC1 | –
39 nM | – | 4 nM | 35 nM | 27% | – | O=C(Nc1ccc(-c2ccncc2)c(-c2ccc(F)cc2)n1)C1CC1 | –
1440 nM | – | 72 nM | – | 2% | 22% | O=C(Nc1ccc(-c2ccncc2)c(-n2cccn2)n1)C1CC1 | –
302 nM | – | 42 nM | 914 nM | 11% | – | O=C(Nc1ccc(-c2ccncc2)c(-c2nccs2)n1)C1CC1 | –
147 nM | 1870 nM | 5 nM | 250 nM | – | – | O=C(Nc1ccc(-c2ccncc2Cl)c(-c2ccco2)n1)C1CC1 | –
– | – | – | – | 7% | 8% | O=C(Nc1ccc(-c2ccncc2)cn1)C1CC1 | inhibition [7]: 29%; inhibition (Adenosine receptor A2a [6]): 2%
862 nM | – | 47 nM | 940 nM | 2% | – | O=C(Nc1ccc(-c2ccncc2)c(-c2ccccn2)n1)C1CC1 | metabolised at 0.5 h, 5 µM [8]: 0%; metabolised at 0.5 h, 5 µM [4]: 12%; half-life [9]: 30 min; Cmax [10]: 822 ng/mL; clearance [11]: 35 mL/min/kg; AUC(0-inf) [12]: 485 ng·h/mL; Vd [13]: 1 L/kg
1360 nM | – | 32 nM | 702 nM | 22% | – | O=C(Nc1ccc(-c2ccncc2)c(-c2ncco2)n1)C1CC1 | metabolised at 0.5 h, 5 µM [14]: 27%; metabolised at 0.5 h, 5 µM [8]: 14%; half-life [9]: 54 min; Cmax [10]: 761 ng/mL; clearance [11]: 31.7 mL/min/kg; AUC(0-inf) [12]: 533 ng·h/mL; Vd [13]: 1.6 L/kg
1470 nM | – | 33 nM | – | 10% | 21% | O=C(Nc1ccc(-c2ccncc2)c(-c2cccnc2)n1)C1CC1 | –
– | – | 380 nM | – | 14% | 5% | O=C(Nc1ccc(-c2ccncc2)c(Cl)n1)C1CC1 | inhibition (Adenosine receptor A2a [6]): 7%
209 nM | 333 nM | 7 nM | 358 nM | – | – | CC(=O)Nc1ccc(-c2ccncc2)c(-c2ccco2)n1 | –
– | – | 208 nM | – | 3% | 3% | O=C(Nc1ccc(-c2ccncc2)c(-c2ccncn2)n1)C1CC1 | inhibition (Adenosine receptor A2a [6]): 9%
57 nM | 715 nM | 2 nM | 14 nM | – | – | O=C(Nc1ccc(-c2ccncc2)c(-c2cccc(F)c2)n1)C1CC1 | –
– | – | 202 nM | – | 1% | 3% | O=C(Nc1ccc(-c2ccncc2)c(-c2cc[nH]n2)n1)C1CC1 | inhibition (Adenosine receptor A2a [6]): 4%
239 nM | 3750 nM | 4 nM | 931 nM | – | – | O=C(Nc1ccc(-c2ccncn2)c(-c2ccco2)n1)C1CC1 | metabolised at 0.5 h, 5 µM [4]: 27%; half-life [9]: 30 min; Cmax [10]: 538 ng/mL; clearance [11]: 63.3 mL/min/kg; AUC(0-inf) [12]: 267 ng·h/mL; Vd [13]: 1.6 L/kg; Tmax [15]: 18 min; bioavailability [16]: 39%
813 nM | 4850 nM | 78 nM | 320 nM | – | – | O=C(Nc1ccc(-c2ccncc2)c(-c2cncs2)n1)C1CC1 | –
– | – | 3670 nM | – | 2% | 6% | CC(=O)c1nc(NC(=O)C2CC2)ccc1-c1ccncc1 | inhibition (Adenosine receptor A2a [6]): 2%
– | – | 47 nM | – | 28% | 7% | CC(=O)Nc1ccc(-c2ccncn2)c(-c2ccco2)n1 | inhibition (Adenosine receptor A2a [6]): 20%
30 nM | 1340 nM | 1 nM | 82 nM | – | – | O=C(Nc1ccc(-c2ccncc2)c(-c2ccco2)n1)C1CC1 | –
150 nM | – | 1 nM | 374 nM | 11% | – | O=C(Nc1ccc(-c2ccncc2F)c(-c2ccco2)n1)C1CC1 | metabolised at 0.5 h, 5 µM [4]: 99%; metabolised at 0.5 h, 5 µM [5]: 77%

SMILES | Ki (Adenosine receptor A2a [1]) | Ki (Adenosine receptor A3) | Ki (Adenosine receptor A2b) | Ki (Adenosine receptor A1) | inhibition [2] | inhibition [3] | other results
N#Cc1ccc(NC(=O)C2CC2)nc1-c1ccco1 | 12 nM | 326 nM | 41 nM | 289 nM | – | – | –
Cc1ccc(-c2nc(NC(=O)C3CC3)ccc2-c2ccncc2)o1 | 11 nM | 189 nM | 5 nM | 25 nM | – | – | –
O=C(Nc1ccc(C2N=NN=N2)c(-c2ccco2)n1)C1CC1 | 1640 nM | – | – | – | 8% | 1% | inhibition [7]: 23%
